Source: ChEMBL document CHEMBL3872207, “Aromatic heterocyclic esters of podophyllotoxin exert anti-MDR activity in human leukemia K562/ADR cells via ROS/MAPK signaling pathways” (Eur J Med Chem, 2016)
Active and inactive are the calls of the source. The rule behind the calls is not given here.

Columns and labels:
[1] = Antiproliferative activity against human K562/ADR cells measured after 72 hrs by CCK8 assay; type: functional, cell-based
[2] = target: T1, MAP kinase p38 (Homo sapiens) (UniProt O15264+Q15759+Q16539+P53778); test: Induction of P38 phosphorylation in human K562/ADR cells assessed as ratio of phosphorylated p38 to beta-actin level at 0.1 uM measured after 48 hrs by Western blotting method (reference value: 0.25); type: cell-based
[3] = target: T1, MAP kinase p38 (Homo sapiens); test: Induction of P38 phosphorylation in human K562/ADR cells assessed as ratio of phosphorylated p38 to beta-actin level at 0.1 uM pretreated with MAPK inhibitor U0126 for 1 hr followed by compound addition after 48 hrs by Western blotting method (reference value: 0.25); type: cell-based
[4] = target: c-Jun N-terminal kinase, JNK (Homo sapiens) (UniProt P45983+P53779+P45984); test: Induction of JNK phosphorylation in human K562/ADR cells assessed as ratio of phosphorylated JNK to beta-actin level at 0.1 uM pretreated with ROS scavenger NAC for 2 hrs followed by compound addition after 48 hrs by Western blotting method (reference value: 0.46); type: cell-based
[5] = Cell cycle arrest in human K562/ADR cells assessed as accumulation at S-phase at 0.1 uM measured after 48 hrs by propidium iodide staining-based flow cytometry (reference value: 47.29 +/- 2.22%); type: functional
[6] = Downregulation of CDK1 expression in human K562/ADR cells assessed as ratio of CDK1 to beta-actin level at 0.1 uM measured after 48 hrs by Western blot analysis (reference value: 0.53); type: functional, cell-based
[7] = Downregulation of CDK1 expression in human K562/ADR cells assessed as ratio of CDK1 to beta-actin level at 0.1 uM pretreated with MAPK inhibitor SB203580 for 1 hr followed by compound addition measured after 48 hrs by Western blot analysis (reference value: 0.53); type: functional, cell-based
[8] = Downregulation of CyclinA expression in human K562/ADR cells assessed as ratio of CyclinA to beta-actin level at 0.1 uM pretreated with ROS scavenger NAC for 2 hrs followed by compound addition measured after 48 hrs by Western blot analysis (reference value: 0.64); type: functional, cell-based
[9] = Downregulation of CyclinA expression in human K562/ADR cells assessed as ratio of CyclinA to beta-actin level at 0.1 uM pretreated with MAPK inhibitor SB203580 for 1 hr followed by compound addition measured after 48 hrs by Western blot analysis (reference value: 0.64); type: functional, cell-based
[10] = Downregulation of CyclinB1 expression in human K562/ADR cells assessed as ratio of CyclinB1 to beta-actin level at 0.1 uM measured after 48 hrs by Western blot analysis (reference value: 0.77); type: functional, cell-based
[11] = Downregulation of CyclinB1 expression in human K562/ADR cells assessed as ratio of CyclinB1 to beta-actin level at 0.1 uM pretreated with ROS scavenger NAC for 2 hrs followed by compound addition measured after 48 hrs by Western blot analysis (reference value: 0.77); type: functional, cell-based
[12] = Downregulation of CyclinB1 expression in human K562/ADR cells assessed as ratio of CyclinB1 to beta-actin level at 0.1 uM pretreated with MAPK inhibitor SP600125 for 1 hr followed by compound addition measured after 48 hrs by Western blot analysis (reference value: 0.77); type: functional, cell-based
K562/Adr [13] = test: Induction of apoptosis in human K562/ADR cells assessed as viable cells at 0.1 uM after 48 hrs by Annexin V-APC/7-AAD staining based flow cytometry (reference value: 95.31%); type: functional; details: read-out: Activity
K562/Adr [14] = test: Induction of apoptosis in human K562/ADR cells assessed as early apoptotic cells at 0.1 uM pretreated with ROS scavenger NAC for 2 hrs followed by compound addition after 48 hrs by Annexin V-APC/7-AAD staining based flow cytometry (reference value: 2.74%); type: functional
K562/Adr [15] = test: Induction of apoptosis in human K562/ADR cells assessed as necrotic cells at 0.1 uM pretreated with ROS scavenger NAC for 2 hrs followed by compound addition after 48 hrs by Annexin V-APC/7-AAD staining based flow cytometry (reference value: 0.26%); type: functional
K562/Adr [16] = test: Induction of apoptosis in human K562/ADR cells assessed as early apoptotic cells at 0.1 uM pretreated with MAPK inhibitor U0126 for 1 hr followed by compound addition after 48 hrs by Annexin V-APC/7-AAD staining based flow cytometry (reference value: 2.74%); type: functional; design: scale not given: the % may be the effect or the level left
K562/Adr [17] = test: Induction of apoptosis in human K562/ADR cells assessed as viable cells at 0.1 uM pretreated with MAPK inhibitor SP600125 for 1 hr followed by compound addition after 48 hrs by Annexin V-APC/7-AAD staining based flow cytometry (reference value: 95.31%); type: functional; details: read-out: Activity
K562/Adr [18] = test: Induction of apoptosis in human K562/ADR cells assessed as late apoptotic cells at 0.1 uM pretreated with MAPK inhibitor SP600125 for 1 hr followed by compound addition after 48 hrs by Annexin V-APC/7-AAD staining based flow cytometry (reference value: 1.69%); type: functional; design: scale not given: the % may be the effect or the level left
K562/Adr [19] = test: Induction of apoptosis in human K562/ADR cells assessed as necrotic cells at 0.1 uM pretreated with MAPK inhibitor SP600125 for 1 hr followed by compound addition after 48 hrs by Annexin V-APC/7-AAD staining based flow cytometry (reference value: 0.26%); type: functional; design: scale not given: the % may be the effect or the level left
K562/Adr [20] = test: Induction of apoptosis in human K562/ADR cells assessed as ratio of cleaved PARP to beta-actin level at 0.1 uM measured after 48 hrs by Western blot analysis (reference value: 0.04); type: functional
K562/Adr [21] = test: Induction of apoptosis in human K562/ADR cells assessed as ratio of cleaved caspase-3 to beta-actin level at 0.1 uM pretreated with MAPK inhibitor U0126 for 1 hr followed by compound addition measured after 48 hrs by Western blot analysis (reference value: 0.06); type: functional
K562/Adr [22] = test: Induction of apoptosis in human K562/ADR cells assessed as ratio of cleaved caspase-3 to beta-actin level at 0.1 uM pretreated with MAPK inhibitor SB203580 for 1 hr followed by compound addition measured after 48 hrs by Western blot analysis (reference value: 0.06); type: functional
K562/Adr [23] = test: Induction of apoptosis in human K562/ADR cells assessed as chromatin condensation at 0.1 uM measured after 24 hrs by Hoechst33342 staining-based inverted fluorescent microscopic analysis; type: functional, cell-based
[24] = Downregulation of P-gp expression in human K562/ADR cells assessed as ratio of P-gp to beta-actin level at 0.1 uM measured after 48 hrs by Western blot analysis (reference value: 0.63); type: functional, cell-based
[25] = Downregulation of P-gp expression in human K562/ADR cells assessed as ratio of P-gp to beta-actin level at 0.1 uM pretreated with ROS scavenger NAC for 2 hrs followed by compound addition measured after 48 hrs by Western blot analysis (reference value: 0.63); type: functional, cell-based
[26] = Downregulation of P-gp expression in human K562/ADR cells assessed as ratio of P-gp to beta-actin level at 0.1 uM pretreated with MAPK inhibitor SB203580 for 1 hr followed by compound addition measured after 48 hrs by Western blot analysis (reference value: 0.63); type: functional, cell-based

**Q.** For `COc1cc([C@@H]2c3cc4c(cc3[C@H](OC(=O)c3ccco3)[C@H]3COC(=O)[C@H]23)OCO4)cc(OC)c1OC`, which IC50 [1] is on record?
**A.** 32 nM

**Q.** What about the Ratio [2] of the same compound?
**A.** 0.46

**Q.** What about the Ratio [3] of the same compound?
**A.** 0.21

**Q.** And the Ratio [4]?
**A.** 0.51

**Q.** And the Activity [5]?
**A.** 60.8%

**Q.** And the Ratio [6]?
**A.** 0.17

**Q.** What about the Ratio [7] of the same compound?
**A.** 0.2

**Q.** What about the Ratio [8] of the same compound?
**A.** 0.58

**Q.** And the Ratio [9]?
**A.** 0.34

**Q.** And the Ratio [10]?
**A.** 0.19

**Q.** What about the Ratio [11] of the same compound?
**A.** 0.66

**Q.** What about the Ratio [12] of the same compound?
**A.** 0.25

**Q.** What about the viability at 0.1 µM (K562/Adr [13]) of the same compound?
**A.** 46.1%

**Q.** What about the Activity (K562/Adr [14]) of the same compound?
**A.** 8.06%

**Q.** What about the Activity (K562/Adr [15]) of the same compound?
**A.** 2.14%

**Q.** And the Activity (K562/Adr [16])?
**A.** 8.73%

**Q.** What about the viability at 0.1 µM (K562/Adr [17]) of the same compound?
**A.** 58.5%

**Q.** What about the Activity (K562/Adr [18]) of the same compound?
**A.** 30.33%

**Q.** What about the Activity (K562/Adr [19]) of the same compound?
**A.** 3.42%

**Q.** What about the Ratio (K562/Adr [20]) of the same compound?
**A.** 0.84

**Q.** And the Ratio (K562/Adr [21])?
**A.** 0.49

**Q.** What about the Ratio (K562/Adr [22]) of the same compound?
**A.** 0.52

**Q.** And the Activity (K562/Adr [23])?
**A.** Active

**Q.** And the Ratio [24]?
**A.** 0.07

**Q.** And the Ratio [25]?
**A.** 0.66

**Q.** And the Ratio [26]?
**A.** 0.34
